Measured values from patent publication US8293979B2, “Weed controller metabolism proteins, genes, thereof and use of the same” (Sumitomo Chemical Company, Limited, priority 2001, dated 2012).

How the values were obtained:
[1] = tested on: present invention protein (A19); experiment: Detection of the ability to convert compound (II) to compound (III), E. coli pKSN1502F extract; format: in vitro ADME, Streptomyces griseus IFO 13849T; conditions: 3 ppm of compound (II) labeled with 14C, components A, B, 10 minutes at 30° C.
Description: (§1) Reaction solutions of 30 μl were prepared and maintained for 10 minutes at 30° C. The reaction solutions consisted of a 0.1M potassium phosphate buffer (pH7.0) containing 3 ppm of compound (II) labeled with ^14C, 2 mM of β-NADPH (hereinafter, referred to as “component A”) (Oriental Yeast Company), 2 mg/ml of a ferredoxin derived from spinach (hereinafter referred to as “component B”) (Sigma Company), 0.1 U/ml of ferredoxin reductase (hereinafter, referred to as “component C”) (Sigma Company) and 23 μl of the supernatant fraction recovered in Example 32(2). Similarly to Example 4(3), the reaction solutions after the maintenance were extracted with ethyl acetate and the extracted layers were TLC analyzed. […] A spot corresponding to compound (III) was detected from the reaction solution containing E. coli pKSN849AF extract. In contrast, such a spot was not detected from the reaction solution containing E. coli pKSN2 extract.
(§2) Similarly to Example 32(3), reaction solutions of 30 μl were prepared and maintained for 10 minutes at 30° C. […] The reaction solutions after the maintenance were extracted with ethyl acetate and the extracted layers were TLC analyzed. […] A spot corresponding to compound (III) was detected from the reaction solution containing E. coli pKSN1502F extract. In contrast, such a spot was not detected from the reaction solution containing E. coli pKSN2 extract.

[2] = tested on: present invention protein (A18); experiment: Detection of the ability to convert compound (II) to compound (III), E. coli pKSN646BF extract; format: in vitro ADME, Streptomyces achromogenes IFO 12735; conditions: 3 ppm of compound (II) labeled with 14C, components A, B, 10 minutes at 30° C.
Description: as §1
as §2, with “pKSN646BF” for “pKSN1502F”

[3] = tested on: Ivyleaf morningglory; experiment: Herbicidal activity test, foliage treatment; format: in vivo, Ipomoea hederacea; parameters: key: 0: situations in which the condition of sprouting or vegetation at the time of examination of the plant utilized for the test was compared with and showed totally or substantially no difference with that of the untreated application; 10: situations in which the plant completely withered or the sprouting or vegetation was completely suppressed; conditions: sprayed onto the foliage of plants cultivated 10 days, investigated after 16 days in a greenhouse
Description: Soil was packed into a round plastic pot having a diameter of 10 cm and depth of 10 cm. Barnyardgrass, Blackgrass, Ivyleaf morningglory were seeded and cultivated in a greenhouse for 10 days. Five (5) parts of the test compound, 6 parts of sorpol3005X (Toho Chemical Company) and 89 parts of xylene were well mixed to produce an emulsion. A certain amount thereof was diluted with water containing 0.1% (v/v) of a sticking agent at a proportion of 1000 L for 1 hectare and was spread uniformly with a spray-gun onto the all sides of the foliage from above the plant cultivated in the above pot. After cultivating the plants for 16 days in a greenhouse, the herbicidal activity of the test compound was investigated.
In the above Tables 3 and 4, the strength of the herbicidal activity is shown stepwise as 0, 1, 2, 3, 4, 5, 6, 7, 8, 9, and 10.

SMILES: C[C@@H](Oc1cc(-n2c(=O)cc(C(F)(F)F)n(C)c2=O)c(F)cc1Cl)C(=O)O [compound (II)]
- spot corresponding to compound (III) labeled with 14C (TLC) [1]: detected
- spot corresponding to compound (III) labeled with 14C (TLC) [2]: detected
- Herbicidal Activity Ivyleaf Morningglory ([3]; 125 g/ha): 10
- Herbicidal Activity Ivyleaf Morningglory ([3]; 500 g/ha): 10
